Data from the NIST ThermoML archive (doi:10.1016/j.jct.2015.12.017).
± gives the expanded uncertainty stated by the source.

Test: molar heat capacity at constant pressure
Details: 101.33 kPa, Crystal 4, Vacuum adiabatic calorimetry

O=P([O-])([O-])[O-].[Co+2].[Cs+] [cesium cobalt(II) phosphate]
Details	molar heat capacity at constant pressure [J/K/mol]
5 K	1.355 ± 0.033
6 K	2.328 ± 0.05
6.05 K	2.228 ± 0.05
6.49 K	2.594 ± 0.058
6.93 K	2.96 ± 0.067
7 K	2.893 ± 0.067
7.36 K	3.11 ± 0.067
7.78 K	3.317 ± 0.075
8 K	3.492 ± 0.075
8.19 K	3.633 ± 0.083
8.62 K	4.041 ± 0.091
9 K	4.091 ± 0.091
9.08 K	4.232 ± 0.091
9.58 K	4.457 ± 0.091
10 K	4.689 ± 0.1
10.1 K	4.822 ± 0.1
10.63 K	5.13 ± 0.11
11.16 K	5.471 ± 0.12
11.67 K	5.737 ± 0.12
12.16 K	5.97 ± 0.12
13 K	6.635 ± 0.14
14.27 K	7.807 ± 0.17
15 K	8.29 ± 0.17
15.59 K	8.921 ± 0.067
16.94 K	10.37 ± 0.075
18.33 K	11.79 ± 0.083
19.77 K	13.05 ± 0.091
20 K	13.44 ± 0.091
20.92 K	14.28 ± 0.1
22.76 K	16.17 ± 0.11
24.48 K	17.93 ± 0.12
25 K	18.57 ± 0.12
26.27 K	19.85 ± 0.12
28.12 K	21.62 ± 0.12
30 K	23.49 ± 0.13
30.03 K	23.55 ± 0.13
32 K	25.54 ± 0.14
34.02 K	27.66 ± 0.16
35 K	28.29 ± 0.16
36.12 K	29.27 ± 0.17
37.97 K	30.99 ± 0.17
40 K	33.01 ± 0.18
40.47 K	33.46 ± 0.12
42.73 K	35.36 ± 0.13
45 K	37.42 ± 0.14
45.02 K	37.41 ± 0.14
47.34 K	39.6 ± 0.15
49.71 K	41.16 ± 0.15
50 K	41.41 ± 0.15
52.12 K	42.9 ± 0.16
54.56 K	44.8 ± 0.17
57.05 K	46.5 ± 0.17
59.55 K	48 ± 0.17
60 K	48.39 ± 0.17
62.07 K	49.7 ± 0.18
64.59 K	51.3 ± 0.18
67.13 K	53 ± 0.19
69.7 K	54.4 ± 0.19
70 K	54.75 ± 0.2
72.02 K	56.1 ± 0.2
74.09 K	57.4 ± 0.21
76.18 K	58.59 ± 0.21
78.27 K	59.6 ± 0.21
80 K	60.56 ± 0.22
80.36 K	60.71 ± 0.22
80.84 K	60.8 ± 0.22
82.45 K	61.91 ± 0.22
82.83 K	62.06 ± 0.22
84.54 K	62.83 ± 0.22
85.25 K	63.18 ± 0.22
86.65 K	64.17 ± 0.22
87.47 K	64.52 ± 0.22
89.36 K	65.58 ± 0.23
89.69 K	65.7 ± 0.23
90 K	65.75 ± 0.27
91.92 K	66.67 ± 0.27
94.14 K	67.78 ± 0.27
96.37 K	69.09 ± 0.28
98.6 K	70.17 ± 0.28
100 K	70.96 ± 0.28
100.83 K	71.3 ± 0.29
103.07 K	72.37 ± 0.29
105.3 K	73.45 ± 0.29
107.54 K	74.66 ± 0.3
109.78 K	75.44 ± 0.3
110 K	75.59 ± 0.3
111.8 K	76.31 ± 0.3
114.54 K	77.64 ± 0.31
116.74 K	78.51 ± 0.31
118.98 K	79.46 ± 0.31
120 K	79.79 ± 0.31
121.23 K	80.28 ± 0.32
123.47 K	81.37 ± 0.32
125.71 K	82.23 ± 0.32
127.95 K	83.09 ± 0.32
130 K	83.89 ± 0.33
130.19 K	83.89 ± 0.33
132.43 K	84.89 ± 0.33
134.67 K	85.72 ± 0.33
136.91 K	86.55 ± 0.33
139.14 K	87.39 ± 0.33
